{
  "source": "patent US20190336504A1",
  "about": "“TREATMENT AND PREVENTION OF CYTOKINE RELEASE SYNDROME USING A CHIMERIC ANTIGEN RECEPTOR IN COMBINATION WITH A KINASE INHIBITOR” (Novartis AG, priority 2016, published 2019)",
  "key": {"[1]": {"system": "B cell neoplasms", "assay_type": "in vivo, mice", "excerpt": "For FIGS. 3C-3E, all graphs were representative of two independent experiments (5 mice per group). Student's t-test was used to compare two groups. Survival curves were compared using the log-rank test. Asterisks represent p-values (*=<0.05, **=<0.01, ***=<0.001, ****=<0.0001) and “ns” means “not significant” (p>0.05).\n(§1) All graphs in FIGS. 4B-4F are representative of two independent experiments (5 mice per group). Student's t-test was used to compare two groups; in analysis where multiple groups were compared, one-way analysis of variance (ANOVA) was performed with Holm-Sidak correction for multiple comparisons. Survival curves were compared using the log-rank test. Asterisks represent p-values (*=<0.05, **=<0.01, ***=<0.001, ****=<0.0001) and “ns” means “not significant” (p>0.05)."}, "[2]": {"system": "primary MCL cells", "test": "Cytokine production of primary MCL cells incubated for 24 hours with ibrutinib", "assay_type": "cell-based", "conditions": "FIG. 4F", "protocol": "as §1"}, "[3]": {"system": "primary MCL cells", "assay_type": "in vivo, NOD-SCID gamma-chain deficient mice (NSG)", "protocol": "This example describes the development of such a model generated by intravenously injecting NOD-SCID gamma-chain deficient mice (NSG) with primary MCL cells collected from a patient with relapsed MCL (FIG. 3A). NOD SCID Gamma-chain deficient mice were injected with 2×10^6 primary MCL cells intravenously. […] Mice were then followed up for clinical signs, T cell engraftment, tumor burden and survival.\nNOD SCID Gamma-chain deficient mice were injected with 2×10^6 primary MCL cells intravenously. […] Mice were then followed up for clinical signs, T cell engraftment, tumor burden and survival. […] See, e.g., Ruella et al. Clin Cancer Res 2016; 10.1158/1078-0432.CCR-15-1527."}, "[4]": {"system": "primary AML blasts", "assay_type": "in vivo", "protocol": "For the development of CRS preclinical models, NOD-SCID-γ chain−/− (NSG) transgenic for human interleukin-3, stem cell factor and granulocyte macrophage colony-stimulating factor (NSG-S) were used. These were purchased from the Stem Cell and Xenograft Core of the University of Pennsylvania (originally obtained from Jackson Laboratories). Schemas of the utilized xenograft models are discussed in detail in the relevant figures and the Results section herein. Cells were injected in 200 ul of phosphate-buffered saline at the indicated concentration into the tail veins.\nRuxolitinib was purchased from Selleckchem, dissolved in DMSO and diluted to the indicated concentrations. […] Blood. […] Blood. […] Blood. 2016.\nSee, e.g., Gill S, Tasian S K, Ruella M, et al. Preclinical targeting of human acute myeloid leukemia and myeloablation using chimeric antigen receptor-modified T cells. Blood. 2014; 123:2343-2354. In particular, NSG-S mice were engrafted with primary AML blasts (5×10^6) and bled after 2-4 weeks to confirm engraftment. Mice then were treated with high doses of CART123 1×10^6 by intravenous tail vein single injection and monitored with serial clinical examinations, weight recording and retro-orbital bleedings for leukemia burden assessment and cytokine analysis. […] (CART123 were injected on day 41 post AML injection in the experiment.)\nThe experiments in this Example investigated ruxolitinib as a modality to prevent or reduce CRS severity after CART123 in the AML xenograft model described herein. NSGS mice were engrafted with primary AML blasts (5×10^6) and bled after 2-4 weeks to confirm peripheral blood engraftment. NSGS mice bearing primary AML were treated with CART123 (1×10^6) by intravenous tail vein single injection along with ruxolitinib or vehicle control. The mice were randomized to receive different doses of ruxolitinib (30 mg/kg, 60 mg/kg or 90 mg/kg) or vehicle by oral gavage twice a day. Treatment started on the day of CART123 injection and continued for a week (FIG. 2A). Mice were then monitored with serial clinical examinations, weight recording, retro-orbital bleedings for leukemia burden assessment and cytokine analysis and followed for survival."}, "[5]": {"system": "AML", "conditions": "summary statement"}},
  "note": "Read-outs that look alike come from different tables or passages of the source.",
  "data": [
    {"compound": "C=CC(=O)N1CCC[C@@H](n2nc(-c3ccc(Oc4ccccc4)cc3)c3c(N)ncnc32)C1", "note": "[ibrutinib, 1-[(3R)-3-[4-Amino-3-(4-phenoxyphenyl)-1H-pyrazolo[3,4-d]pyrimidin-1-yl]piperidin-1-yl]prop-2-en-1-one]", "values": [
      {"measurement": "T cell expansion", "setting": "[1]; CART19-treated mice, ibrutinib or vehicle treatment, FIG. 4D", "value": "augmented"},
      {"measurement": "CRS after a CD19 CAR therapy", "setting": "[1]; CD19 CAR therapy for B cell neoplasms, summary statement", "value": "improve or prevent CRS"},
      {"measurement": "serum cytokines involved in CRS (Luminex)", "setting": "[1]; mice treated with CART19+ibrutinib vs CART19, FIG. 4E", "value": "significant reduction"},
      {"measurement": "overall survival", "setting": "[1]; mice treated with CART19 plus ibrutinib (vs CART19 plus vehicle), FIG. 4B, log-rank test", "value": "significantly increased"},
      {"measurement": "cytokine production", "setting": "[2]", "value": "significant cytokine production in a dose-dependent manner"},
      {"measurement": "overall survival (OS)", "setting": "[3]; CART19 + ibrutinib 125 mg/Kg/day in drinking water vs CART19 alone", "value": "prolonged overall survival"},
      {"measurement": "CART19 expansion in the PB", "setting": "[3]; CART19 + ibrutinib vs CART19 alone", "value": "augmented"},
      {"measurement": "cytokines in the peripheral blood (IL-6, IFNg, TNFα, IL-2, GM-CSF)", "setting": "[3]; day 4, ibrutinib-treated mice", "value": "significantly reduced"}
    ]},
    {"compound": "N#CC[C@H](C1CCCC1)n1cc(-c2ncnc3[nH]ccc23)cn1", "note": "[ruxolitinib, (3R)-3-cyclopentyl-3-[4-(7H-pyrrolo[2,3-d]pyrimidin-4-yl)pyrazol-1-yl]propanenitrile]", "values": [
      {"measurement": "leukemia in peripheral blood of surviving mice", "setting": "[4]; 70 days post AML injection, live human CD45 positive cells", "value": "all surviving mice had eradication of leukemia"},
      {"measurement": "anti-leukemic effect", "setting": "[4]; all groups: CART123 + ruxolitinib 30, 60 or 90 mg/kg or vehicle", "value": "equivalent anti-leukemic effect"},
      {"measurement": "T cell expansion in the peripheral blood", "setting": "[4]; ruxolitinib 60 mg/kg + CART123", "value": "blunted T cell expansion"},
      {"measurement": "leukemia burden", "setting": "[4]; ruxolitinib 60 mg/kg + CART123", "value": "leukemia eradication"},
      {"measurement": "levels of inflammatory cytokines", "setting": "[4]; ruxolitinib 60 mg/kg + CART123", "value": "reduced levels of inflammatory cytokines"},
      {"measurement": "weight loss", "setting": "[4]; ruxolitinib 60 mg/kg + CART123", "value": "transient weight loss"},
      {"measurement": "survival", "setting": "[4]; ruxolitinib 60 mg/kg + high dose CART123", "value": "long-term disease free survival"},
      {"measurement": "clinical illness (CRS) manifested by weight loss", "setting": "[4]; ruxolitinib 60 mg/kg oral gavage twice a day for a week + CART123, vs CART123 alone or + 30 mg/kg", "value": "less severe clinical illness"},
      {"measurement": "clinical illness (CRS) manifested by weight loss", "setting": "[4]; ruxolitinib 90 mg/kg oral gavage twice a day for a week + CART123, vs CART123 alone or + 30 mg/kg", "value": "less severe clinical illness"},
      {"measurement": "direct anti-tumor activity", "setting": "[4]; ruxolitinib with CART123", "value": "no direct anti-tumor activity"},
      {"measurement": "effect on anti-tumor activity of CART123", "setting": "[4]; ruxolitinib with CART123", "value": "did not impair"},
      {"measurement": "cytokine release syndrome (CRS) after CART cell therapy", "setting": "[5]; CART cell therapy for hematological cancers, such as AML", "value": "ameliorate cytokine release syndrome (CRS) severity or prevent CRS"},
      {"measurement": "anti-tumor effect of the CART therapy", "setting": "[5]; combination with JAK-STAT kinase inhibitor", "value": "without significantly impairing"}
    ]}
  ]
}
